# Assay results reported in PMC6605100 (Peptide science (Hoboken, N.J.), 2018).
# How the values were obtained:
# [1] = Peptide degradation assay in HeLa lysates, RP-HPLC; conditions: 30 μM peptide, HeLa lysates 2 mg/mL, 10 mM Tris-HCl pH 7.6, 37°C, HPLC UV 442 nm
entry into intact cells (permeability) (HeLa cells),Compound,time within which the peptide was mostly degraded [1]
found to enter intact HeLa cells,Ac-RWVKVpGOWIKQ-NH2 [WKWK],–
–,N=C(N)NCCC[C@H](NC(=O)[C@H](CCCNC(=N)N)NC(=O)[C@H](CCCNC(=N)N)NC(=O)[C@H](CCC(N)=O)NC(=O)[C@H](CCCNC(=N)N)NC(=O)[C@H](CCCNC(=N)N)NC(=O)[C@H](CCCCN)NC(=O)[C@H](CCCCN)NC(=O)[C@H](CCCNC(=N)N)NC(=O)CNC(=O)[C@H](Cc1ccc(O)cc1)NC(=O)c1ccc2c(c1)C(=O)OC21c2ccc(O)cc2Oc2cc(O)ccc21)C(N)=O [TAT],≤ 30 min
